Patent publication US5608095A, “Alkyl-4-silyl-phenols and esters thereof as antiatherosclerotic agents” (Hoechst Marion Roussel, Inc., priority 1996, dated 1997)
Where two headings read alike, the source gives them in different places.

Legend:
[1] = Animal parameters (food, body weight, liver weight, mortality) in rats; assay type: in vivo, male Sprague-Dawley rats; settings: 4 days; for mortality at 96 h: in vivo, po, read-out: mortality (deaths per group); for mortality at 96 h / body wt., percent of control / lw/bw (liver weight/body weight), percent of control: rat
From the text: (§1) A typical experiment consisted of 4-6 groups of rats (N=5 per group) with 1 group being a control which received no MDL compound and the other groups being treated with 0.3% MDL compound. Some of the compounds were either repeated at 0.3% or evaluated again at the lower dose of 0.1%. Male Sprague-Dawley rats, 50-100 g, (Harlan Laboratories, Indianapolis, Ind.) were housed in groups of 5, fed ad libitum water and Purina Rodent chow (#5002) with or without MDL compound as a dietary admixture for 4 days. Dietary admixtures (0.3%) were made by mixing 1.2 grams of an MDL compound with 400 grams of Purina rodent chow (#5002). The MDL compound was mixed with approximately 50 grams of food using a mortar and pestle. This was added to the remainder of the food and mixed for 3 hours on a rotary mixer. In the morning of day 5, non-fasted rats were anesthetized with carbon dioxide, and blood was collected by cardiac puncture. Rats were sacrificed by cervical dislocation. Body weights and liver weights were recorded in grams. Food consumption was recorded as grams.cndot.day^-1.cndot.rat^-1. Deaths were recorded as mortality. Aliquots of fresh serum were used for clinical chemistries, thiobarbituric acid reactive substances (TBARS) and conjugated diene measurements. Aliquots of serum (~0.5mL) and whole livers were frozen at -20° C. for compound and metabolite concentration determination at a later time.

[2] = Clinical chemistries in serum of rats; assay type: in vivo, male Sprague-Dawley rats; settings: for response vs control in vivo at 0.3 % / response vs control in vivo at 0.1 %: po, 96 h
From the text: as §1
Blood was allowed to clot at room temperature for 30 minutes. Serum was obtained after centrifugation for 10 min at 4° C. at 3000 rpm in a Beckman J-6M/E centrifuge with a JS-4.2 rotor. Fresh serum was analyzed by a COBAS MIRA S autoanalyzer (Roche Diagnostics) using Roche diagnostic reagents for the following clinical chemistry measurements: alkaline phosphatase (ALP, kit #44553), alanine transaminase (ALT, kit #42375), aspartate aminotransferase (AST, kit #42381), total cholesterol (CHOL, kit #44334), triglyceride (TG, kit #44120), and glucose (GLU, kit #44558). ALP, ALT, and AST were calculated as units/L. Cholesterol, triglycerides, and glucose were calculated as mg/dL.

[3] = Food consumption, body and liver weight in cholesterol-fed rabbits; assay type: in vivo, female New Zealand White rabbits; settings: for body wt., percent of control / lw/bw (liver weight/body weight), percent of control: rabbit
Experimental: (§2) Five independent experiments were performed in the following manner. […] Female New Zealand White rabbits (Hazelton, ~2.0-2.3 kg) were fed 0.2% cholesterol enriched rabbit chow (Purina #5322) with or without 0.4% MDL compound (except, MDL 108,804 at 0.26% and MDL 103,491 repeated at 0.6%). The MDL compounds were solubilized in 100% ethanol. MDL 108,208 was not soluble in 100% ethanol, but it was soluble in diethyl ether:ethanol (3:2 by volume). The chow was sprayed with the MDL mixtures and allowed to dry overnight in a chemical fume hood. Control chow was sprayed with ethanol. Rabbits were fed 100 grams food per day for 7 days (0.6% MDL 103,491 were fed for 14 days); water was available ad libitum. On day 7, rabbits (fasted overnight) were bled (~2 mL) from marginal ear vein; 0.6% MDL 103,491 treated rabbits were tested on day 14. They were euthanized by carbon dioxide overdose. The total body and liver weights were recorded in grams. Food consumption was recorded as grams.cndot.day^-1 .cndot.rabbit^-1. Aliquots of fresh serum were used for clinical chemistries, lipoprotein cholesterol determination, thiobarbituric acid reactive substances (TBARS) and compound and metabolite concentrations in serum. Livers (~5 gram aliquots) were frozen at -20° C. for compound and metabolite concentration determination at a later time.

[4] = system: oxidation of serum lipids; assay: TBARS assay, serum of cholesterol-fed rabbits; assay type: in vivo, female New Zealand White rabbits; settings: Oryctolagus cuniculus, po, rabbit serum, read-out: TBARS, percent of control
Experimental: as §2
TBARS are a qualitative indication of the oxidation of lipids in a sample. In this assay the oxidation of serum lipids is initiated with CuSO4, resulting in the formation of aldehydes, such as malondialdehyde (MDA). Upon incubation with thiobarbituric acid, the absorbance of the aldehydes can be detected at 530-540 nm. TBARS values which are lower than control serum values indicate the relative ability of a compound to inhibit the oxidation. TBARS were measured as follows: 50 μL of serum were mixed with 50 μL of 0.9% saline and 400 μL of a 5 mM CuSO4 solution and incubated at 37° C. for 5 hr. The reactions were stopped by addition of 1.0 mL of 20% trichloroacetic acid. Then 1.0 mL of 0.67% thiobarbituric acid in 0.05N sodium hydroxide was added, mixed, and the samples incubated for 30 min at 90° C. Samples were centrifuged briefly to pellet undissolved material, and the supernatants were transferred to a 96-well microtiter plate. Absorbances were measured at 540 nm using a Biotek model EL311 microplate reader. The nmoles of MDA produced were calculated from a standard curve of 0 to 10 nmoles of MDA prepared from malonaldehyde bis(dimethylacetal). Serum samples from treated rabbits were compared to serum samples from control rabbits that received no MDL compound.

[5] = Rattus norvegicus, read-out: CHOL (total cholesterol), percent of control
[6] = Rattus norvegicus, read-out: TRIG (triglycerides), percent of control
[7] = rat serum, diet 0.3%, 4 days, read-out: CHOL (total cholesterol), percent of control
[8] = rat serum, diet 0.3%, 4 days, read-out: TRIG (triglycerides), percent of control

| Structure (SMILES) | food (grams eaten per day per rat), percent of control ([1]; diet 0.3%) [%] | mortality at 96 h ([1]; diet 0.3%) [%] | body wt., percent of control ([1]; diet 0.3%) [%] | lw/bw (liver weight/body weight), percent of control ([1]; diet 0.3%) [%] | response vs control in vivo at 0.3 % [2, 5] [%] | response vs control in vivo at 0.3 % [2, 6] [%] | ALP (alkaline phosphatase), percent of control ([2]; rat serum, diet 0.3%, 4 days) [%] | ALT (alanine aminotransferase), percent of control ([2]; rat serum, diet 0.3%, 4 days) [%] | AST (aspartate aminotransferase), percent of control ([2]; rat serum, diet 0.3%, 4 days) [%] | GLUC (glucose), percent of control ([2]; rat serum, diet 0.3%, 4 days) [%] | response vs control in vivo at 0.3 % [2, 7] [%] | response vs control in vivo at 0.3 % [2, 8] [%] | also measured |
| --- | --- | --- | --- | --- | --- | --- | --- | --- | --- | --- | --- | --- | --- |
| CC(C)(C)c1cc(OC[Si](C)(C)c2ccccc2)cc(C(C)(C)C)c1OC(=O)CCC(=O)O [MDL 103,076, 2,6-Di-t-butyl-4-[(dimethylphenylsilyl)methyloxy]phenol succinic acid ester] | 93 | 0 | 105 | 110 | 114 | 77 | 201 | 132 | 99 | 99 |  |  |  |
| CC(C)(C)c1cc(SC[Si](C)(C)c2ccccc2)cc(C(C)(C)C)c1OC(=O)CCC(=O)O [MDL 103,141, 2,6-Di-t-butyl-4-[(dimethylphenylsilyl)methylthio]phenol sucinic acid ester] | 87 | 0 | 91 | 96 | 119 | 47 | 147 | 126 | 120 | 107 |  |  |  |
| CC(=O)Oc1c(C(C)(C)C)cc(OC[Si](C)(C)c2ccccc2)cc1C(C)(C)C [MDL 103,377, 2,6-Di-t-butyl-4-[(dimethylphenylsilyl)methyloxy]phenol acetic acid ester] | 82 | 0 | 97 | 105 |  |  | 147 | 145 | 149 | 102 | 93 | 85 |  |
| CC(C)(C)c1cc(OC[Si](C)(C)c2ccccc2)ccc1O [MDL 103,491, 2-t-Butyl-4-[(dimethylphenylsilyl)methyloxy]phenol] | 89 | 0 | 100 | 130 |  |  | 80 | 127 | 114 | 94 | 146 | 131 | food (grams eaten per day per rabbit), percent of control ([3]; diet 0.4%, 7 days): 100%; food (grams eaten per day per rabbit), percent of control ([3]; diet 0.6%, 14 days): 80%; body wt., percent of control ([3]; diet 0.4%, 7 days): 100%; lw/bw (liver weight/body weight), percent of control ([3]; diet 0.4%, 7 days): 89%; body wt., percent of control ([3]; diet 0.6%, 14 days): 95%; lw/bw (liver weight/body weight), percent of control ([3]; diet 0.6%, 14 days): 96%; response vs control in vivo at 0.4 % ([4]; 168 h, diet 0.4%, 7 days): 32%; response vs control in vivo at 0.6 % ([4]; 336 h, diet 0.6%, 14 days): 18%; food (grams eaten per day per rat), percent of control ([1]; diet 0.1%): 92%; mortality at 96 h ([1]; diet 0.1%): 0%; body wt., percent of control ([1]; diet 0.1%): 95%; lw/bw (liver weight/body weight), percent of control ([1]; diet 0.1%): 106%; response vs control in vivo at 0.1 % ([2]; rat serum, diet 0.1%, 4 days, read-out: CHOL (total cholesterol), percent of control): 112%; response vs control in vivo at 0.1 % ([2]; rat serum, diet 0.1%, 4 days, read-out: TRIG (triglycerides), percent of control): 92%; ALP (alkaline phosphatase), percent of control ([2]; rat serum, diet 0.1%, 4 days): 116%; ALT (alanine aminotransferase), percent of control ([2]; rat serum, diet 0.1%, 4 days): 133%; AST (aspartate aminotransferase), percent of control ([2]; rat serum, diet 0.1%, 4 days): 94%; GLUC (glucose), percent of control ([2]; rat serum, diet 0.1%, 4 days): 101% |
| Cc1cc(OC[Si](C)(C)c2ccccc2)c(C)c(C)c1O [MDL 105,314, 2,3,6-Trimethyl-4-[(dimethylphenylsdilyl)methloxy]phenol] | 109 | 0 | 111 | 118 | 110 | 78 | 154 | 113 | 76 | 115 |  |  |  |
